pKd: −log10 of the molar value. ≈ marks a conversion by molar mass, not a printed value.
How the values were obtained:
Rattus norvegicus [1] = species on record: Rattus norvegicus; experiment: Compound was tested in vitro for its ability to inhibit histamine release from rat mast cells.; type: functional; conditions: read-out: ED50 (the source's name)
Rattus norvegicus [2] = species on record: Rattus norvegicus; experiment: Compound was evaluated for time course of action on LH secretion in the castrated male rat at a time interval of 1 hr at 25 microg; type: functional
Rattus norvegicus [3] = species on record: Rattus norvegicus; experiment: Compound was evaluated for time course of action on LH secretion in the castrated male rat at a time interval of 19 hr at 25 microg; type: functional
Rattus norvegicus [4] = species on record: Rattus norvegicus; experiment: Compound was evaluated for time course of action on LH secretion in the castrated male rat at a time interval of 43 hr at 25 microg; type: functional
Rattus norvegicus [5] = species on record: Rattus norvegicus; experiment: Compound was evaluated for time course of action on LH secretion in the castrated male rat at a time interval of 49 h at 125 microg; type: functional
Rattus norvegicus [6] = species on record: Rattus norvegicus; experiment: Compound was evaluated for time course of action on LH secretion in the castrated male rat at a time interval of 49 hr at 25 microg; type: functional
Rattus norvegicus [7] = species on record: Rattus norvegicus; experiment: Compound was evaluated for time course of action on LH secretion in the castrated male rat at a time interval of 67 hr at 25 microg; type: functional
Rattus norvegicus [8] = species on record: Rattus norvegicus; experiment: Compound was evaluated for time course of action on LH secretion in the castrated male rat at a time interval of 73 hr at 25 microg; type: functional
Rattus norvegicus [9] = species on record: Rattus norvegicus; experiment: Compound was evaluated for time course of action on LH secretion in the castrated male rat at a time interval of 0 hr at 25 microg; type: functional
Rattus norvegicus [10] = species on record: Rattus norvegicus; experiment: Compound was evaluated for time course of action on LH secretion in the castrated male rat at a time interval of 1 hr at 125 microg; type: functional
Rattus norvegicus [11] = species on record: Rattus norvegicus; experiment: Compound was evaluated for time course of action on LH secretion in the castrated male rat at a time interval of 43 hr at 125 microg; type: functional
Rattus norvegicus [12] = species on record: Rattus norvegicus; experiment: Compound was evaluated for time course of action on LH secretion in the castrated male rat at a time interval of 67 hr at 125 microg; type: functional
Rattus norvegicus [13] = species on record: Rattus norvegicus; experiment: Compound was evaluated for time course of action on LH secretion in the castrated male rat at a time interval of 0 hr at 125 microg; type: functional
Rattus norvegicus [14] = species on record: Rattus norvegicus; experiment: Compound was evaluated for time course of action on LH secretion in the castrated male rat at a time interval of 19 hr at 125 microg; type: functional
Rattus norvegicus [15] = species on record: Rattus norvegicus; experiment: Compound was evaluated for time course of action on LH secretion in the castrated male rat at a time interval of 73 hr at 125 microg; type: functional
Rattus norvegicus [16] = species on record: Rattus norvegicus; experiment: Dissociation constant was determined in rat pituitary cells.; type: cell-based; conditions: pituitary gland cell
[17] = molecular target: T1, Gonadotropin-releasing hormone receptor (Rattus norvegicus) (UniProt P30969); experiment: Inhibition of GnRH-mediated LH secretion by cultured pituitary cells; type: functional, cell-based; conditions: Pituitary gland cell
T1 sequence (whole entry): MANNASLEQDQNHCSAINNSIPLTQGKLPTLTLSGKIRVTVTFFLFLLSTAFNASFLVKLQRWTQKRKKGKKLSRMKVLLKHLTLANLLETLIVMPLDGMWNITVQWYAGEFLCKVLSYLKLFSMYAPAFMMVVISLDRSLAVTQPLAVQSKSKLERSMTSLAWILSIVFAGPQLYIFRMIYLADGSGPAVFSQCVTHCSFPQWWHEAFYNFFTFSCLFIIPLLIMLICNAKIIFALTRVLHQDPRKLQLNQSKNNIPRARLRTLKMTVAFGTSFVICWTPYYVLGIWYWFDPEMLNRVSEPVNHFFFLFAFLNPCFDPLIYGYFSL

Rattus norvegicus [18] = species on record: Rattus norvegicus; experiment: GnRH antagonistic dose of compound for 9 rats ovulation out of total 20 using anti-ovulatory assay; type: functional
Rattus norvegicus [19] = species on record: Rattus norvegicus; experiment: GnRH antagonistic dose of compound for 8 rats ovulation out of total 10 using anti-ovulatory assay; type: functional
Rattus norvegicus [20] = species on record: Rattus norvegicus; experiment: GnRH antagonistic dose of compound for 11 rats ovulation out of total 15 using anti-ovulatory assay; type: functional
Rattus norvegicus [21] = species on record: Rattus norvegicus; experiment: GnRH antagonistic dose of compound for 0 rats ovulation out of total 10 using anti-ovulatory assay in experiment 1; type: functional
Rattus norvegicus [22] = species on record: Rattus norvegicus; experiment: GnRH antagonistic dose of compound for 8 rats ovulation out of total 16 using anti-ovulatory assay in experiment 1; type: functional
Rattus norvegicus [23] = species on record: Rattus norvegicus; experiment: Compound was evaluated for time course of action on LH secretion in the castrated male rat at a time interval of 49 hr at 125 microg; type: functional
Rattus norvegicus [24] = species on record: Rattus norvegicus; experiment: GnRH antagonistic dose of compound for 0 rats ovulation out of total 10 using anti-ovulatory assay in experiment 2; type: functional
Rattus norvegicus [25] = species on record: Rattus norvegicus; experiment: GnRH antagonistic dose of compound for 1 rats ovulation out of total 10 using anti-ovulatory assay in experiment 1; type: functional

Structure (SMILES): CC(=O)N1CCC[C@@H]1C(=O)N[C@H](Cc1ccc(F)cc1)C(=O)N[C@H](Cc1c[nH]c2ccccc12)C(=O)N[C@@H](CO)C(=O)N[C@@H](Cc1ccc(O)cc1)C(=O)N[C@H](Cc1c[nH]c2ccccc12)C(=O)N[C@@H](CC(C)C)C(=O)N[C@@H](CCCN=C(N)N)C(=O)N1CCC[C@H]1C(=O)NCC(=O)O
- EC50 (Rattus norvegicus [1]): 39 µg/mL (≈ 28.5 µM)

Structure (SMILES): CC(=O)N1CCC[C@@H]1C(=O)N[C@H](Cc1ccc(F)cc1)C(=O)N[C@H](Cc1c[nH]c2ccccc12)C(=O)N[C@@H](CO)C(=O)N[C@@H](CCCN=C(N)N)C(=O)N[C@H](Cc1ccc2ccccc2c1)C(=O)N[C@@H](CC(C)C)C(=O)N[C@@H](CCCN=C(N)N)C(=O)N1CCC[C@H]1C(=O)NCC(N)=O
- LH level (Rattus norvegicus [2]): 5.68 ng/mL
- LH level (Rattus norvegicus [3]): 2.78 ng/mL
- LH level (Rattus norvegicus [4]): 4.38 ng/mL
- LH level (Rattus norvegicus [5]): 2.5 ng/mL
- LH level (Rattus norvegicus [6]): 5.46 ng/mL
- LH level (Rattus norvegicus [7]): 8.23 ng/mL
- LH level (Rattus norvegicus [8]): 9.15 ng/mL
- LH level (Rattus norvegicus [9]): 10.25 ng/mL
- LH level (Rattus norvegicus [10]): 6.17 ng/mL
- LH level (Rattus norvegicus [11]): 2.63 ng/mL
- LH level (Rattus norvegicus [12]): 2.74 ng/mL
- LH level (Rattus norvegicus [13]): 12.47 ng/mL
- LH level (Rattus norvegicus [14]): 3 ng/mL
- LH level (Rattus norvegicus [15]): 4.58 ng/mL

Structure (SMILES): CC(=O)N[C@H](Cc1ccc2ccccc2c1)C(=O)N[C@H](Cc1ccc(Cl)cc1)C(=O)N[C@H](Cc1cccnc1)C(=O)N[C@@H](CO)C(=O)N[C@@H](CCCN=C(N)N)C(=O)N[C@H](Cc1cn(C=O)c2ccccc12)C(=O)N[C@@H](CC(C)C)C(=O)N[C@@H](CCCN=C(N)N)C(=O)N1CCC[C@H]1C(=O)N[C@H](C)C(=O)O
- pKd (Rattus norvegicus [16]): 9.32
- Relative potency [17]: 0.95
- ED100 (Rattus norvegicus [18]): 0.5 µg/kg
- EC50 (Rattus norvegicus [1]): 3.4 µg/mL (≈ 2.29 µM)

Structure (SMILES): CC(=O)N[C@H](Cc1ccc2ccccc2c1)C(=O)N[C@H](Cc1ccc(Cl)cc1)C(=O)N[C@H](Cc1cccnc1)C(=O)N[C@@H](CO)C(=O)N[C@@H](CCCN=C(N)N)C(=O)N[C@H](Cc1ccc2ccccc2c1)C(=O)N[C@@H](CC(C)C)C(=O)N[C@@H](CCCN=C(N)N)C(=O)N1CCC[C@@H]1C(=O)N[C@H](C)C(=O)O
- pKd (Rattus norvegicus [16]): 8.30
- Relative potency [17]: 0.88
- ED100 (Rattus norvegicus [19]): 1 µg/kg
- EC50 (Rattus norvegicus [1]): 1.9 µg/mL (≈ 1.3 µM)

Structure (SMILES): CC(=O)N[C@H](Cc1ccc2ccccc2c1)C(=O)N[C@H](Cc1ccc(Cl)cc1)C(=O)N[C@H](Cc1cccnc1)C(=O)N[C@@H](CO)C(=O)N[C@@H](CCCN=C(N)N)C(=O)N[C@H](Cc1ccc(O)cc1)C(=O)N[C@@H](CC(C)C)C(=O)N[C@@H](CCCN=C(N)N)C(=O)N1CCC[C@H]1C(=O)N[C@H](C)C(N)=O
- ED100 (Rattus norvegicus [20]): 0.5 µg/kg
- EC50 (Rattus norvegicus [1]): 3.7 µg/mL (≈ 2.59 µM)

Structure (SMILES): COc1ccc(C(=O)CC[C@@H](NC(=O)[C@H](Cc2ccc(O)cc2)NC(=O)[C@H](CO)NC(=O)[C@@H](Cc2cccnc2)NC(=O)[C@@H](Cc2ccc(Cl)cc2)NC(=O)[C@H]2CCCN2C(C)=O)C(=O)N(C)[C@@H](CC(C)C)C(=O)N[C@@H](CCCN=C(N)N)C(=O)N2CCC[C@@H]2C(=O)N[C@H](C)C(=O)O)cc1
- pKd (Rattus norvegicus [16]): 9.51
- Relative potency [17]: 0.13

Structure (SMILES): COc1ccc(C(=O)CC[C@@H](NC(=O)[C@H](CCCN=C(N)N)NC(=O)[C@H](CO)NC(=O)[C@@H](Cc2cccnc2)NC(=O)[C@@H](Cc2ccc(Cl)cc2)NC(=O)[C@@H](Cc2ccc3ccccc3c2)NC(C)=O)C(=O)N[C@@H](CC(C)C)C(=O)N[C@@H](CCCN=C(N)N)C(=O)N2CCC[C@H]2C(=O)N[C@H](C)C(=O)O)cc1
- pKd (Rattus norvegicus [16]): 9.17
- Relative potency [17]: 1.01
- ED100 (Rattus norvegicus [21]): 1.5 µg/kg
- ED100 (Rattus norvegicus [22]): 0.5 µg/kg
- EC50 (Rattus norvegicus [1]): 1.6 µg/mL (≈ 1.08 µM)
- LH level (Rattus norvegicus [10]): 6.31 ng/mL
- LH level (Rattus norvegicus [11]): 3.27 ng/mL
- LH level (Rattus norvegicus [12]): 3.67 ng/mL
- LH level (Rattus norvegicus [13]): 13.38 ng/mL
- LH level (Rattus norvegicus [14]): 3.68 ng/mL
- LH level (Rattus norvegicus [23]): 2.94 ng/mL
- LH level (Rattus norvegicus [15]): 5.06 ng/mL

Structure (SMILES): COc1ccc(C(=O)CC[C@@H](NC(=O)[C@H](CCCN=C(N)N)NC(=O)[C@H](CO)NC(=O)[C@@H](Cc2cccnc2)NC(=O)[C@@H](Cc2ccc(Cl)cc2)NC(=O)[C@@H](Cc2ccc3ccccc3c2)NC(C)=O)C(=O)N[C@@H](CC(C)C)C(=O)N[C@@H](CCCN=C(N)N)C(=O)N2CCC[C@H]2C(=O)NCC(=O)O)cc1
- pKd (Rattus norvegicus [16]): 9.22
- ED100 (Rattus norvegicus [24]): 2.5 µg/kg
- ED100 (Rattus norvegicus [25]): 1 µg/kg
- EC50 (Rattus norvegicus [1]): 3.2 µg/mL (≈ 2.17 µM)
